Measured values published in patent publication US20230128907A1, “PARIS POLYPHYLLA SAPONIN EXTRACT WITH ACTIVITY AGAINST MULTIDRUG-RESISTANT BACTERIA AND PREPARATION AND USE THEREOF” (XI'AN KANGYUANSHENG BIOMEDICAL TECHNOLOGY CO., LTD., priority 2021, published 2023).
Where a name gives a salt, the structure may show the parent alone.

Columns and labels:
Assay type in all cases: cell-based
Escherichia coli [1] = assay: MIC by liquid micro-dilution method; set-up: key: “+” means bacterial growth; “−” means no bacterial growth
Description: (§1) The minimum inhibitory concentration (MIC) of the extract was determined by liquid microdilution method.
(§2) Twenty-four hours before the experiment, the test strains preserved in low temperature were taken out and placed at room temperature. A small amount of bacterial liquid was drawn with a pipette, inoculated into the sterilized and cooled growth medium, and placed in a 35° C. incubator for 24 hours. A pipette was used to transfer a small amount of activated bacterial colonies to a sterilized dry test tube, diluted with medium to a turbidity similar to that of a 0.5 McFarland turbidimetric tube (1.5×10^8 CFU/mL), and then diluted with medium by […], so that the bacterial suspension concentration reaches 1.0×10^6 CFU/mL (diluted twice before being added to the wells, and the final bacterial concentration in the system being 5×10^5 CFU/mL) for MIC measurement.
(§3) In a sterile 96-well flat-bottom microculture plate, 100 μL of […] positive control solution was added to the No. […] 2-11 well, respectively. No. 12 well was solvent.
(§4) The plate was incubated in a 30° C. incubator for 24 hours, the experimental results were observed, and the minimum inhibitory concentration (MIC) values were determined. […] The difference was counted as “≤[…].” The above experiments were performed in parallel for 3 times. When the MIC value could be accurately repeated or only differed by one concentration, it was accepted. The higher concentration was used as the MIC value. When the MIC value differed by more than two concentrations, the experiment was repeated until it met the until requested.

Salmonella [2] = assay: MIC by liquid micro-dilution method; set-up: key: “+” means bacterial growth; “−” means no bacterial growth
Description: as §1, §2, §3, §4

[3] = system: Multidrug-resistant Staphylococcus aureus 222; assay: In vitro antibacterial activity of combination of extract and antibacterial drug (MIC, FIC)
[4] = system: Multidrug-resistant Staphylococcus aureus 222; assay: MIC by liquid micro-dilution method; set-up: key: “+” means bacterial growth; “−” means no bacterial growth
Description: as §1, §2, §3, §4

Salmonella [5] = assay: In vitro antibacterial activity of combination of extract and antibacterial drug (MIC, FIC)
[6] = system: Multidrug-resistant Pseudomonas aeruginosa 174; assay: as above
[7] = system: Multidrug-resistant Pseudomonas aeruginosa 174; assay: MIC by liquid micro-dilution method; set-up: key: “+” means bacterial growth; “−” means no bacterial growth
Description: as §1, §2, §3, §4

Escherichia coli [8] = assay: In vitro antibacterial activity of combination of extract and antibacterial drug (MIC, FIC)
[9] = drug MIC in combination with the Paris Polyphylla Saponin Extract
[10] = Table 4, positive control 128 μg/mL (Table 3)
[11] = Table 6, positive control 128 μg/mL (Table 3)
[12] = Table 8, positive control 128 μg/mL (Table 3)
[13] = Table 7, positive control 128 μg/mL (Table 3)

## C[C@@H]1CC[C@@]2(OC1)O[C@H]1C[C@H]3[C@@H]4CC=C5C[C@@H](O[C@@H]6O[C@H](CO)[C@@H](O)[C@H](O)[C@H]6O[C@@H]6O[C@@H](C)[C@H](O)[C@@H](O)[C@H]6O)CC[C@]5(C)[C@H]4CC[C@]3(C)[C@@]1(O)[C@@H]2C [Polyphyllin VI]
Escherichia coli [1]; Table 7, Conc. 0.25 μg/mL
  bacterial growth: +
Escherichia coli [1]; Table 7, Conc. 0.5 μg/mL
  bacterial growth: +
Escherichia coli [1]; Table 7, Conc. 1 μg/mL
  bacterial growth: +
Escherichia coli [1]; Table 7, Conc. 2 μg/mL
  bacterial growth: +
Escherichia coli [1]; Table 7, Conc. 4 μg/mL
  bacterial growth: +
Escherichia coli [1]; Table 7, Conc. 8 μg/mL
  bacterial growth: +
Escherichia coli [1]; Table 7, Conc. 16 μg/mL
  bacterial growth: +
Escherichia coli [1]; Table 7, Conc. 32 μg/mL
  bacterial growth: +
Escherichia coli [1]; Table 7, Conc. 64 μg/mL
  bacterial growth: +
Escherichia coli [1]; Table 7, Conc. 128 μg/mL
  bacterial growth: +
Salmonella [2]; Table 7, Conc. 0.25 μg/mL
  bacterial growth: +
Salmonella [2]; Table 7, Conc. 0.5 μg/mL
  bacterial growth: +
Salmonella [2]; Table 7, Conc. 1 μg/mL
  bacterial growth: +
Salmonella [2]; Table 7, Conc. 2 μg/mL
  bacterial growth: +
Salmonella [2]; Table 7, Conc. 4 μg/mL
  bacterial growth: +
Salmonella [2]; Table 7, Conc. 8 μg/mL
  bacterial growth: +
Salmonella [2]; Table 7, Conc. 16 μg/mL
  bacterial growth: +
Salmonella [2]; Table 7, Conc. 32 μg/mL
  bacterial growth: +
Salmonella [2]; Table 7, Conc. 64 μg/mL
  bacterial growth: +
Salmonella [2]; Table 7, Conc. 128 μg/mL
  bacterial growth: +

## Cc1nnc(SCC2=C(C(=O)O)N3C(=O)[C@@H](NC(=O)Cn4cnnn4)[C@H]3SC2)s1 [Cefazolin sodium]
[3]; [9]
  Combination Treatment MIC Combination: 16 µg/mL
[3]; drug alone
  Combination Treatment MIC Single: 128 µg/mL
[4]; [10]
  bacterial growth: −
[4]; [11]
  bacterial growth: −
[4]; [12]
  bacterial growth: −

## C[C@H]1COc2c(N3CCN(C)CC3)c(F)cc3c(=O)c(C(=O)O)cn1c23 [Levofloxacin hydrochloride]
Salmonella [5]; [9]
  Combination Treatment MIC Combination: 2 µg/mL
Salmonella [5]; drug alone
  Combination Treatment MIC Single: 4 µg/mL
Salmonella [2]; [10]
  bacterial growth: −
Salmonella [2]; [11]
  bacterial growth: −
Salmonella [2]; [13]
  bacterial growth: −
Salmonella [2]; [12]
  bacterial growth: −

## CC1CCC2(OC1)OC1CC3C4CC=C5CC(OC6OC(CO)C(OC7OC(C)C(OC8OC(C)C(O)C(O)C8O)C(O)C7O)C(O)C6OC6OC(C)C(O)C(O)C6O)CCC5(C)C4CCC3(C)C1C2C (stereo not drawn) [Polyphyllin II]
[4]; Table 6, 0.25 μg/mL
  bacterial growth: +
[4]; Table 6, 0.5 μg/mL
  bacterial growth: +
[4]; Table 6, 1 μg/mL
  bacterial growth: +
[4]; Table 6, 2 μg/mL
  bacterial growth: +
[4]; Table 6, 4 μg/mL
  bacterial growth: +
[4]; Table 6, 8 μg/mL
  bacterial growth: +
[4]; Table 6, 16 μg/mL
  bacterial growth: +
[4]; Table 6, 32 μg/mL
  bacterial growth: +
[4]; Table 6, 64 μg/mL
  bacterial growth: +
[4]; Table 6, 128 μg/mL
  bacterial growth: +
[4]; Table 6, 256 μg/mL
  bacterial growth: +
[4]; Table 6, 512 μg/mL
  bacterial growth: +
[4]; Table 6, 1024 μg/mL
  bacterial growth: +
Escherichia coli [1]; Table 6, 0.25 μg/mL
  bacterial growth: +
Escherichia coli [1]; Table 6, 0.5 μg/mL
  bacterial growth: +
Escherichia coli [1]; Table 6, 1 μg/mL
  bacterial growth: +
Escherichia coli [1]; Table 6, 2 μg/mL
  bacterial growth: +
Escherichia coli [1]; Table 6, 4 μg/mL
  bacterial growth: +
Escherichia coli [1]; Table 6, 8 μg/mL
  bacterial growth: +
Escherichia coli [1]; Table 6, 16 μg/mL
  bacterial growth: +
Escherichia coli [1]; Table 6, 32 μg/mL
  bacterial growth: +
Escherichia coli [1]; Table 6, 64 μg/mL
  bacterial growth: +
Escherichia coli [1]; Table 6, 128 μg/mL
  bacterial growth: +
Escherichia coli [1]; Table 6, 256 μg/mL
  bacterial growth: +
Escherichia coli [1]; Table 6, 512 μg/mL
  bacterial growth: +
Escherichia coli [1]; Table 6, 1024 μg/mL
  bacterial growth: +
Salmonella [2]; Table 6, 0.25 μg/mL
  bacterial growth: +
Salmonella [2]; Table 6, 0.5 μg/mL
  bacterial growth: +
Salmonella [2]; Table 6, 1 μg/mL
  bacterial growth: +
Salmonella [2]; Table 6, 2 μg/mL
  bacterial growth: +
Salmonella [2]; Table 6, 4 μg/mL
  bacterial growth: +
Salmonella [2]; Table 6, 8 μg/mL
  bacterial growth: +
Salmonella [2]; Table 6, 16 μg/mL
  bacterial growth: +
Salmonella [2]; Table 6, 32 μg/mL
  bacterial growth: +
Salmonella [2]; Table 6, 64 μg/mL
  bacterial growth: +
Salmonella [2]; Table 6, 128 μg/mL
  bacterial growth: +
Salmonella [2]; Table 6, 256 μg/mL
  bacterial growth: +
Salmonella [2]; Table 6, 512 μg/mL
  bacterial growth: +
Salmonella [2]; Table 6, 1024 μg/mL
  bacterial growth: +

## Gentamicin sulfate
[6]; [9]
  Combination Treatment MIC Combination: 0.125 µg/mL
[6]; drug alone
  Combination Treatment MIC Single: 0.125 µg/mL
[7]; [10]
  bacterial growth: −
[7]; [12]
  bacterial growth: −

## CO/N=C(\C(=O)N[C@@H]1C(=O)N2C(C(=O)O)=C(CSc3nc(=O)c(=O)[nH]n3C)CS[C@H]12)c1csc(N)n1 [Ceftriaxone sodium]
Escherichia coli [8]; [9]
  Combination Treatment MIC Combination: 0.5 µg/mL
Escherichia coli [8]; drug alone
  Combination Treatment MIC Single: 2 µg/mL
Escherichia coli [1]; [10]
  bacterial growth: −
Escherichia coli [1]; [11]
  bacterial growth: −
Escherichia coli [1]; [13]
  bacterial growth: −
Escherichia coli [1]; [12]
  bacterial growth: −

## CC1CCC2(OC1)OC1CC3C4CC=C5CC(OC6OC(CO)C(OC7OC(C)C(OC8OC(C)C(O)C(O)C8O)C(O)C7O)C(O)C6OC6OC(C)C(O)C(O)C6O)CCC5(C)C4CCC3(C)C1(O)C2C (stereo not drawn) [Polyphyllin VII]
[4]; Table 8, 0.25 μg/mL
  bacterial growth: +
[4]; Table 8, 0.5 μg/mL
  bacterial growth: +
[4]; Table 8, 1 μg/mL
  bacterial growth: +
[4]; Table 8, 2 μg/mL
  bacterial growth: +
[4]; Table 8, 4 μg/mL
  bacterial growth: +
[4]; Table 8, 8 μg/mL
  bacterial growth: +
[4]; Table 8, 16 μg/mL
  bacterial growth: +
[4]; Table 8, 32 μg/mL
  bacterial growth: +
[4]; Table 8, 64 μg/mL
  bacterial growth: +
[4]; Table 8, 128 μg/mL
  bacterial growth: +
[4]; Table 8, 256 μg/mL
  bacterial growth: +
[4]; Table 8, 512 μg/mL
  bacterial growth: +
[4]; Table 8, 1024 μg/mL
  bacterial growth: +
Escherichia coli [1]; Table 8, 0.25 μg/mL
  bacterial growth: +
Escherichia coli [1]; Table 8, 0.5 μg/mL
  bacterial growth: +
Escherichia coli [1]; Table 8, 1 μg/mL
  bacterial growth: +
Escherichia coli [1]; Table 8, 2 μg/mL
  bacterial growth: +
Escherichia coli [1]; Table 8, 4 μg/mL
  bacterial growth: +
Escherichia coli [1]; Table 8, 8 μg/mL
  bacterial growth: +
Escherichia coli [1]; Table 8, 16 μg/mL
  bacterial growth: +
Escherichia coli [1]; Table 8, 32 μg/mL
  bacterial growth: +
Escherichia coli [1]; Table 8, 64 μg/mL
  bacterial growth: +
Escherichia coli [1]; Table 8, 128 μg/mL
  bacterial growth: +
Escherichia coli [1]; Table 8, 256 μg/mL
  bacterial growth: +
Escherichia coli [1]; Table 8, 512 μg/mL
  bacterial growth: +
Escherichia coli [1]; Table 8, 1024 μg/mL
  bacterial growth: +
[7]; Table 8, 0.25 μg/mL
  bacterial growth: +
[7]; Table 8, 0.5 μg/mL
  bacterial growth: +
[7]; Table 8, 1 μg/mL
  bacterial growth: +
[7]; Table 8, 2 μg/mL
  bacterial growth: +
[7]; Table 8, 4 μg/mL
  bacterial growth: +
[7]; Table 8, 8 μg/mL
  bacterial growth: +
[7]; Table 8, 16 μg/mL
  bacterial growth: +
[7]; Table 8, 32 μg/mL
  bacterial growth: +
[7]; Table 8, 64 μg/mL
  bacterial growth: +
[7]; Table 8, 128 μg/mL
  bacterial growth: +
[7]; Table 8, 256 μg/mL
  bacterial growth: +
[7]; Table 8, 512 μg/mL
  bacterial growth: +
[7]; Table 8, 1024 μg/mL
  bacterial growth: +
Salmonella [2]; Table 8, 0.25 μg/mL
  bacterial growth: +
Salmonella [2]; Table 8, 0.5 μg/mL
  bacterial growth: +
Salmonella [2]; Table 8, 1 μg/mL
  bacterial growth: +
Salmonella [2]; Table 8, 2 μg/mL
  bacterial growth: +
Salmonella [2]; Table 8, 4 μg/mL
  bacterial growth: +
Salmonella [2]; Table 8, 8 μg/mL
  bacterial growth: +
Salmonella [2]; Table 8, 16 μg/mL
  bacterial growth: +
Salmonella [2]; Table 8, 32 μg/mL
  bacterial growth: +
Salmonella [2]; Table 8, 64 μg/mL
  bacterial growth: +
Salmonella [2]; Table 8, 128 μg/mL
  bacterial growth: +
Salmonella [2]; Table 8, 256 μg/mL
  bacterial growth: +
Salmonella [2]; Table 8, 512 μg/mL
  bacterial growth: +
Salmonella [2]; Table 8, 1024 μg/mL
  bacterial growth: +
